US5457099A, “Carbostyril derivatives and antiallergic agent” (Sawai Pharmaceutical Co., Ltd., priority 1992, dated 1995)
Read-outs that look alike come from different tables or passages of the source.

Tests used:
[1] = system: experimental asthma in rats; assay: Inhibition of experimental asthma in rats; type: in vivo, Wistar rats; details: Rattus norvegicus, po; for inhibition in vivo at 1 mg/kg: other dosage/kg: 1 mg; for inhibition in vivo at 0.1 mg/kg: other dosage/kg: 0.1 mg; for inhibition in vivo at 0.3 mg/kg: other dosage/kg: 0.3 mg
Experimental: (§1) Antiserum was prepared according to the method described in J. Immunol., 106, 1002 (1971). The titer (or highest effective dilution which gave a mean 48 hours PCA response of 5 mm in diameter in a rat) of the antiserum used was 1:200.
Wistar rats were passively sensitized by injection into caudal vein of 2.0ml/animal antiserum. After 24 hours, anaphylactic airway contraction caused by administration of antigen was measured by a modified Konzett and Roessler method. Briefly, the animal was fixed at dorsal position under urethane (1.5 g/kg, i.p.) anesthetization and connected with a respirator (Harvard Model 683, respiratory volume: 3-5 ml/respiration; respiratory rate: 72/minute) via an incised tracheal cannula. […] Oxatomide was administered two hours before the test, which is the optimal conditions according to Nippon Yakurigaku Zasshi (Japanese Journal of Pharmacology), 80, 261 (1982), and the other test drugs were orally administered at a rate of 0.2 ml/100 g body weight one hour before the test using a gastric tube. At the end of measurement, the trachea was blocked with a Kocher clamp and the measured values were expressed in percent taking the value at blockage as the maximum contraction (100%).

[2] = system: passive cutaneous anaphylaxis (PCA) reaction in rats; assay: Inhibition of PCA reaction in rats; type: in vivo, Wistar rats; details: Rattus norvegicus, po; for inhibition in vivo at 3 mg/kg / inhibition in vivo at 10 mg/kg: read-out: Inhibition of PCA in rat
Experimental: as §1
Wistar rats were passively sensitized by intracutaneous injection of 0.05 ml antiserum diluted 75 times with physiological saline at two sheared sites of dorsal skin. After 48 hours, 0.5ml/animal of 1% Evans blue-physiological saline containing 2mg ovalbumin was administered into caudal vein to elicit the reaction. After 30 minutes, rats were sacrificed by decapitative bleeding and the dorsal skin was flayed. Dye stuff exuded at the reaction site was extracted according to the method described in Microbiol. Immunol., 22, 89 (1978). Briefly, two circular pieces of sensitized areas and one circular piece of unsensitized area (as the control) were punched at 1.8 cm diameter. The disks were placed in test tubes and treated overnight with 1 ml 1N-KOH at 37° C. Then 9ml 0.6N-H3 PO4 /acetone (5/13) was added and the mixture was thoroughly stirred and centrifuged (3000 rpm, 10 minutes). The supernatant was assayed for absorption at 620 nm. The amount of dye stuff was calculated from the standard curve previously prepared with known amounts of Evance blue. The conditions of sensitization and the amount of antigen were based on Nippon Yakurigaku Zasshi (Japanese Journal of Pharmacology),80, 261 (1982).
Test drugs and Oxatomide as a positive control were administered orally before 1 hour of elicitation through a gastric tube at 1 ml/200g body weight. In the test, groups of 6 to 7 animals and groups of 8 to 9 animals were used for test drugs and control, respectively.

[3] = read-out: Inhibition of Experimental Asthma in rat
[4] = 10 mg/kg, read-out: Inhibition of Experimental Asthma in rat

| Compound | inhibition in vivo at 10 mg/kg [1, 4] [%] | inhibition in vivo at 10 mg/kg ([2]; 10 mg/kg) [%] | further results |
| --- | --- | --- | --- |
| O=c1cc(CN2CCC(c3c[nH]c4ccccc34)CC2)c2ccccc2[nH]1 [III-1, 4-[[4-(1H-indol-3-yl)-l-piperidinyl]methyl]-2(1H)-quinolinone] |  |  | inhibition in vivo at 10 mg/kg [1, 3]: 14.6%; inhibition in vivo at 30 mg/kg [1, 3]: 14.3%; inhibition in vivo at 3 mg/kg [2]: 58.8%; inhibition in vivo at 10 mg/kg [2]: 73.1% |
| O=c1cc(CCCN2CCC(c3c[nH]c4ccccc34)CC2)c2ccccc2[nH]1 [III-3, 4-[3-[4-(1H-indol-3-yl)-1-piperidinyl]propyl]-2(1H)-quinolinone] | 85 | 69.1 | inhibition in vivo at 1 mg/kg [1]: 25.4%; inhibition in vivo at 3 mg/kg ([1]; other dosage/kg: 3 mg): 88.7%; inhibition in vivo at 1 mg/kg ([2]; other dosage/kg: 1 mg): 21.3%; inhibition in vivo at 3 mg/kg ([2]; other dosage/kg: 3 mg): 25.8%; inhibition in vivo at 30 mg/kg ([2]; other dosage/kg: 30 mg): 96.1% |
| O=c1cc(CCCCN2CCC(c3c[nH]c4ccccc34)CC2)c2ccccc2[nH]1 [III-4, 4-[4-[4-(1H-indol-3-yl)-1-piperidinyl]butyl]-2(1H)-quinolinone] | 28.7 | 12.8 |  |
| O=c1cc(CCCCCN2CCC(c3c[nH]c4ccccc34)CC2)c2ccccc2[nH]1 [III-5, 4-[5-[4-(1H-indol-3-yl)-1-piperidinyl]pentyl]-2(1H)-quinolinone] | 8.87 | 66.5 |  |
| O=c1cc(CN2CCN(C(c3ccccc3)c3ccccc3)CC2)c2ccccc2[nH]1 [III-6, 4-[[4-(diphenylmethyl)-1-piperazinyl]methyl]-2(1H)-quinolinone] | 57.2 | 9.7 |  |
| O=c1cc(CCN2CCN(C(c3ccccc3)c3ccccc3)CC2)c2ccccc2[nH]1 [III-7, 4-[2-[4-(diphenylmethyl)-1-piperazinyl]ethyl]-2(1H)-quinolinone] | 63.6 | 57.8 |  |
| O=c1cc(CCCN2CCN(C(c3ccccc3)c3ccccc3)CC2)c2ccccc2[nH]1 [III-8, 4-[3-[4-(diphenylmethyl)-1-piperazinyl]propyl]-2(1H)-quinolinone] | 17.1 | 73.9 |  |
| O=c1cc(CCN2CCN(C(c3ccccc3)c3ccc(Cl)cc3)CC2)c2ccccc2[nH]1 (centres unmarked) [III-9] | 34.6 | 8.9 |  |
| O=c1cc(CCN2CCC(OC(c3ccccc3)c3ccccc3)CC2)c2ccccc2[nH]1 [III-11, 4-[2-[4-(diphenylmethoxy)-1-piperidinyl]ethyl]-2(1H)-quinolinone] | 35.6 | 63.6 |  |
| O=c1cc(CCCN2CCC(OC(c3ccccc3)c3ccccc3)CC2)c2ccccc2[nH]1 [III-12, 4-[3-[4-(diphenylmethoxy)-1-piperidinyl]propyl]-2(1H)-quinolinone] | 12.1 | 73.6 |  |
| O=C1Cc2ccccc2C(=C2CCN(Cc3cc(=O)[nH]c4ccccc34)CC2)c2ccsc21 [III-13, 4,9-dihydro-4-[1-[(1,2-dihydro-2-oxo-4-quinolyl)methyl]-4-piperidinylidene]-10H-benzo[4, 5]cyclohepta[1,2-b]thiophen-10-one] | 42.9 | 24.2 |  |
| O=C1Cc2ccccc2C(=C2CCN(CCc3cc(=O)[nH]c4ccccc34)CC2)c2ccsc21 [III-14, 4,9-dihydro-4-[1-[2-(1,2-dihydro-2-oxo-4-quinolyl)ethyl]-4-piperidinylidene]-10H-benzo[4, 5]cyclohepta[1,2-b]thiophen-10-one] | 44.8 | 23.1 |  |
| O=C1Cc2ccccc2C(=C2CCN(CCCc3cc(=O)[nH]c4ccccc34)CC2)c2ccsc21 [III-15, 4,9-dihydro-4-[1-[3-(1,2-dihydro-2-oxo-4-quinolyl)propyl]-4-piperidinylidene]-10H-benzo[4, 5]cyclohepta[1,2-b]thiophen-10-one] | 37.5 | 49.9 |  |
| Cn1c(=O)cc(CN2CCC(c3c[nH]c4ccccc34)CC2)c2ccccc21 [III-16, 4-[[4-(1H-indol-3-yl)-l-piperidinyl]methyl]-1-methyl-2(1H)-quinolinone] |  |  | inhibition in vivo at 10 mg/kg [1, 3]: 2.57%; inhibition in vivo at 10 mg/kg [2]: 45.6% |
| Cn1c(=O)cc(CCN2CCC(c3c[nH]c4ccccc34)CC2)c2ccccc21 [III-17, 4-[2-[4-(1H-indol-3-yl)-1-piperidinyl]ethyl]-1-methyl-2(1H)-quinolinone] | 86.5 | 42.5 | inhibition in vivo at 0.1 mg/kg [1]: 96.2%; inhibition in vivo at 0.3 mg/kg [1]: 80.9%; inhibition in vivo at 1 mg/kg [1]: 88.1% |
| O=c1cc(CCN2CCC(c3c[nH]c4ccccc34)CC2)c2ccc(Br)cc2[nH]1 [III-18, 7-bromo-4-[2-[4-(1H-indol-3-yl)-1-piperidinyl]ethyl]-2(1H)-quinolinone] | 84.2 | 45.2 | inhibition in vivo at 1 mg/kg [1]: 62.6% |
| O=c1cc(CCN2CCC(c3c[nH]c4ccccc34)CC2)c2cc([N+](=O)[O-])ccc2[nH]1 [III-19, 4-[2-[4-(1H-indol-3-yl)-1-piperidinyl]ethyl]-6-nitro-2(1H)-quinolinone] | 88.5 | 20.3 |  |
| Nc1ccc2[nH]c(=O)cc(CCN3CCC(c4c[nH]c5ccccc45)CC3)c2c1 [III-20, 6-amino-4-[2-[4-(1H-indol-3-yl)-1-piperidinyl]ethyl]-2(1H)-quinolinone] | 89.2 | 18.5 |  |
| Cc1ccc2[nH]c(=O)cc(CCN3CCC(c4c[nH]c5ccccc45)CC3)c2c1 [III-23, 4-[2-[4-(1H-indol-3-yl)-1-piperidinyl]ethyl]-6-methyl-2(1H)-quinolinone] | 95.5 | 62 | inhibition in vivo at 0.1 mg/kg [1]: 48.5%; inhibition in vivo at 0.3 mg/kg [1]: 84%; inhibition in vivo at 1 mg/kg [1]: 95% |
| Cc1cccc2c(CCN3CCC(c4c[nH]c5ccccc45)CC3)cc(=O)[nH]c12 [III-24, 4-[2-[4-(1H-indol-3-yl)-1-piperidinyl]ethyl]-8-methyl-2-(1H)-quinolinone] | 73.8 | 102 | inhibition in vivo at 1 mg/kg [1]: 95.7% |
| Cc1ccc2c(CCN3CCC(c4c[nH]c5ccccc45)CC3)cc(=O)[nH]c2c1 [III-25, 4-[2-[4-(1H-indol-3-yl)-1-piperidinyl]ethyl]-7-methyl-2-(1H)-quinolinone] | 68.6 | 29.4 |  |
| Cc1cc(C)c2c(CCN3CCC(c4c[nH]c5ccccc45)CC3)cc(=O)[nH]c2c1 [III-27, 5,7-dimethyl-4-[2-[4-(1H-indol-3-yl)-1-piperidinyl]ethyl]-2(1H)-quinolinone] | 65.8 | 70.9 |  |
| O=C1CC(CCN2CCC(c3c[nH]c4ccccc34)CC2)c2ccccc2N1 (centres unmarked) [IV-1, 3,4-dihydro-4-[2-[4-(1H-indol-3-yl)-1-piperidinyl]ethyl]-2(1H)-quinolinone] | 80.1 | 95.9 | inhibition in vivo at 1 mg/kg [1]: 26.4%; inhibition in vivo at 3 mg/kg ([2]; other dosage/kg: 3 mg): 65.9% |
| O=c1ccc2cc(Cl)ccc2n1CCCN1CCC(c2c[nH]c3ccccc23)CC1 [VII-1, 1-[3-[4-(1H-indol-3-yl)-piperidinyl]propyl]-6-chloro-2-(1H)-quinolinone] | 40.3 | 12.1 |  |
| Cc1ccc2c(ccc(=O)n2CCCN2CCC(c3c[nH]c4ccccc34)CC2)c1 [VII-2, 1-[3-[4-(1H-indol-3-yl)-1-piperidinyl]propyl]-6-methyl-2(1H)-quinolinone] | 24.3 | 41.9 |  |
| O=c1ccc2ccccc2n1CCCN1CCC(c2c[nH]c3ccccc23)CC1 [VII-3, 1-[3-[4-(1H-indol-3-yl)-1-piperidinyl]propyl]-2(1H)-quinolinone] | 76.7 | 27.2 |  |
| Cc1cc(=O)n(CCCN2CCC(c3c[nH]c4ccccc34)CC2)c2ccccc12 [VII-4, 1-[3-[4-(1H-indol-3-yl)-1-piperidinyl]propyl]-4-methyl-2-(1H)-quinolinone] | 10.8 | 89.2 |  |
